Laboratory results reported in patent US4117003A, “Substituted aromatic naphthalene sulfonamides” (American Cyanamid Company, priority 1977, dated 1978).
Counter-ions that a name gives are not always drawn. Like-named read-outs stand apart in the source and are kept apart here.

Experiments:
activated human C1 = biological target: T1, activated human C1 (Homo sapiens, UniProt P09871); experiment: Test, Code 026 (C1 inhibitor); format: biochemical; conditions: activity in wells of a serial two-fold dilution assay; higher well number indicates higher activity
T1 sequence (P09871 438-688 limits assumed): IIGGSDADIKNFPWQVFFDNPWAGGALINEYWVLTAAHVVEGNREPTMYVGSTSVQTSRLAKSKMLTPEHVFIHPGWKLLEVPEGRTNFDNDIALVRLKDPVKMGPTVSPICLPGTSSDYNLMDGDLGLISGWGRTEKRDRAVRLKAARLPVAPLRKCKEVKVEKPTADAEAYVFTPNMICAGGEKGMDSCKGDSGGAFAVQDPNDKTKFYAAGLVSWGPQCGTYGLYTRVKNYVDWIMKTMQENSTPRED
T1 sequence (P09871 16-437 limits assumed): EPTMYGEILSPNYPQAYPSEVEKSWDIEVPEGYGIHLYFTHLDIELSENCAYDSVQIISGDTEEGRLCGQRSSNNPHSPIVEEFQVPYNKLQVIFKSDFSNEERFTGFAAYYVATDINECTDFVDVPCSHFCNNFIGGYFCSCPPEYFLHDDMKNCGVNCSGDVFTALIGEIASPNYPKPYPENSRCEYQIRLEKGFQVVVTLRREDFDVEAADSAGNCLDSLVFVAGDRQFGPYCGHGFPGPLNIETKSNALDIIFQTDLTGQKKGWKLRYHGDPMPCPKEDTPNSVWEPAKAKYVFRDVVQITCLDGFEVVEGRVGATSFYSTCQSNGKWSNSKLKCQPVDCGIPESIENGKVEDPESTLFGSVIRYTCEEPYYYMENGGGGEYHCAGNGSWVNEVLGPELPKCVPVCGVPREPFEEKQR
Excerpt: (§1) This test measures the ability of activated human C1 to destroy fluid phase human C2 in the presence of C4 and appropriate dilutions of the test compound. An active inhibitor protects C2 from C1 and C4; (ii) Test, Code 035 (C3-C9 inhibitor). This test determines the ability of the late components of human complement (C3-C9) to lyse EAC 142 in the presence of appropriate dilutions of the test compound. An active inhibitor protects EAC 142 from lysis by human C3-C9; (iii) Test, Code 036 (C-Shunt inhibitor). In this test human erythrocytes rendered fragile are lysed in autologous serum via the shunt pathway activated by cobra venom factor in the presence of appropriate dilutions of the test compound. Inhibition of the shunt pathway results in failure of lysis; (iv) Forssman Vasculitis Test - Here, the well known complement dependent lesion, Forssman vasculitis, is produced in guinea pigs by intradermal injection of rabbit anti-Forssman antiserum. […]

[1] = tested on: late components of human complement (C3-C9); experiment: Test, Code 035 (C3-C9 inhibitor); format: biochemical; conditions: activity in wells of a serial two-fold dilution assay; higher well number indicates higher activity
Excerpt: as §1

[2] = tested on: shunt pathway activated by cobra venom factor; experiment: Test, Code 036 (C-Shunt inhibitor); format: cell-based, human; conditions: activity in wells of a serial two-fold dilution assay; higher well number indicates higher activity
Excerpt: as §1

[3] = tested on: whole complement in serum; experiment: Complement Level Reduction Test (in vivo, capillary tube assay of serum); conditions: Cavia porcellus, ip, guinea pig, 200 mg/kg i.p., read-out: In Vivo Activity (Guinea Pig) % Inhibition Intraperitoneal

| SMILES | Cl 0.26* Wells (activated human C1) | C-Late 0.35* Wells [1] | Shunt Inhibition 0.36* Wells [2] | inhibition at 200 mg/kg ([3]; 0.5 h, 30 minutes) | inhibition at 200 mg/kg ([3]; 1 h, 60 minutes) | inhibition at 200 mg/kg ([3]; 2 h, 120 minutes) |
| --- | --- | --- | --- | --- | --- | --- |
| O=S(=O)(O)c1ccc(NS(=O)(=O)c2ccc3c(S(=O)(=O)Nc4ccc(S(=O)(=O)O)cc4)cc(S(=O)(=O)Nc4ccc(S(=O)(=O)O)cc4)cc3c2)cc1 [4,4',4"-[1,3,6-Naphthalenetris(sulfonylimino)]trisbenzenesulfonic acid trisodium salt] | +4 Wells | N | N | – | – | – |
| O=S(=O)(O)c1cc(NS(=O)(=O)c2ccc3c(S(=O)(=O)Nc4cc(S(=O)(=O)O)cc(S(=O)(=O)O)c4)cc(S(=O)(=O)Nc4cc(S(=O)(=O)O)cc(S(=O)(=O)O)c4)cc3c2)cc(S(=O)(=O)O)c1 [5,5',5"-[1,3,6-Naphthalenetris(sulfonylimino)]tris-1,3-benzenedisulfonic acid hexasodium salt] | – | N | – | -85% | -86% | -86% |
